Assay results: paper PMC12311895, “Single-Molecule Protein Interactions and Unfolding Revealed by Plasmon-Enhanced Fluorescence” (Analytical Chemistry, 2025)

Tests used:
[1] = tested on: PDZ (MBP-PDZ immobilized on gold nanorods); assay: urea-mediated unfolding/refolding of immobilized PDZ, read out by peptide binding kinetics; type: biochemical
Excerpt: Next, we employed the platform to monitor protein unfolding and refolding. […] After validating that the observed event rate decrease was not caused by protein dissociation from the GNPs (Supplementary Figure 8), we next characterized the concentration dependency of this urea-mediated PDZ unfolding (Figure B). The protein-peptide binding frequency, and thus PDZ conformational integrity, clearly decreases in a urea concentration-dependent manner.
3 Urea-mediated PDZ denaturation. […] (B) Left/blue data points: PDZ-peptide binding event frequencies at different urea concentrations. To prevent cumulative and/or time-mediated influences, measurements at each concentration were performed with a fresh sample. Error bars represent the effect of each sample’s Poisson distribution of the number of proteins per particle on the average binding frequencies. Right/green data points: PDZ-peptide binding event frequencies of a similar sample, after incubation at 6.4 M urea and subsequent removal thereof. (C) Bright-time distribution of the PDZ-peptide binding events at different urea concentrations. […] The 95% confidence interval is obtained by propagating 1.96 SE of the corresponding tb fits.
5 minute steps at 5000 rpm each). After each centrifugation step, supernatants were discarded, and pellets were re-dissolved (200 µL of 25 mM HEPES (pH 7.4) after the first spin step, 200 µL of milliQ after step 2 and 3, and 150 µL of 10 mM HEPES (pH 7.4) + 0.0025 w/v% Tween20 + 1 mM MgCl2 after step 4.
For each reaction, 5.0 µL of protein-DNA conjugate was added to a 150 µL particle solution as prepared above. Added protein-DNA concentrations varied from 250 pM to 2 µM depending on the desired number of proteins per particle.
Reactions were either incubated for 2 hours at room temperature (~21 °C), or overnight in the fridge (4 °C). After incubation, 1.5 µL of 20 w/v% BSA in PBS was added to each sample, following an additional 15 minutes of incubation.
Next, samples were washed using 4 centrifugal steps (5 minutes at 5000 rpm and 4 °C each). After each spin step, supernatants were removed, and particles were re-suspended using 10 mM HEPES pH 7.4, 0.0025 w/v% Tween20, 1 mM MgCl2, 0.2 w/v% BSA (150 µL after step 1-3, 75 µL after step 4).
Functionalized gold nanoparticle concentrations were determined through absorption measurements on a Thermo Scientific Nanodrop 2000 apparatus. Fluorescence spectroscopy-based protein quantifications were performed through fluorescence measurements on a Varioskan Lux platereader (500 nm excitation, 12nm bandwidth, low dynamic range, […]
Sample preparation for microscopy measurements
Glass microscopy slides (Menzel #1.5 24*40 mm) were sonicated in MeOH for 15 minutes, and blown dry using nitrogen gas afterwards. Next, slides were plasma treated for 1 minute. Imaging spacer stickers were added to the cleaned glass slides. Particles were diluted to OD = 0.1 (at 650 nm, 1 cm pathlength) in PBS, and for each sample 50 µL was pipetted into the imaging spacer. Samples were incubated for at least 5 minutes, after which the majority of particles were firmly immobilized. Depending on the measurement, samples were used as described, or briefly washed with PBS (unfolding/refolding measurements).
Fluorescence microscopy measurements
Samples were measured through fluorescence microscopy. The utilized setup’s main components consi sted of a Coherent OBIS 637 nm laser, Nikon eclipse Ti2 microscope body, Apo TIRF 60x 1.49 NA DIC N2 Oil objective, and Prime BSI Express CMOS camera. All measurements were performed using TIRF illumination. Sample and imaging conditions […]
Table S.2. Sample and imaging conditions per experiment.
Experiment/associated Laser power (mW): Exposure (ms): Labeled peptide
Figure(s): concentration (nM):
Kinetic analysis – 50 20 1 dissociation kinetics. Figure
Kinetic analysis: association 50 60 1 […]
Peptide and urea solutions were all prepared in PBS. […]

[2] = tested on: ATTO 532-PDZ decorated gold nanoparticles; assay: stability of GNP-protein conjugate to urea (fluorescence of ATTO 532-PDZ on particles); settings: 4 M urea, 15 minutes, then exchanged for PBS; five particles, 532 nm laser
Method: Supplementary Figure 7. Fluorescence polarization curve of the interaction between MBP-PDZ (no DNA attached) ௣ ) + Aଶ , yields a Kd (x0) of 0.2 µM (p set to 1 and ATTO 655-labeled peptide. The fit (y =((Aଵ −Aଶ )/(1 + ቀ[௣௥௢௧௘௜௡ ]௄೏ ቁ to represent 1:1 binding). Measurement performed with 10 nM peptide in 10 mM HEPES pH 7.4, 150 mM NaCl, 0.1 v/v% Tween 20, 0.1 w/v% BSA, 1 mM DTT.
Supplementary Figure 8. Mean fluorescence intensities of five ATTO 532- PDZ decorated gold nanoparticles before and after exposure to 4 M urea. Immobilized particles were briefly imaged with a 532 nm laser before exposure to urea, with bare PBS in the bulk solution. Next, the laser was turned off, urea was added towards 4 M, and the sample was incubated for 15 minutes. Afterwards, the urea solution was exchanged for fresh PBS, the laser turned on, and fluorescence intensities measured again.
ATTO 532-labeled PDZ proteins remained on the particles.
(also on this page, place not known: inte raction =( (Aଵ −A ଶ)/(1 ቀ [௣௥௢௧௘௜௡] ௄೏ 350Polarization (mP) P1, before P1, after P2, before P2, after P3, before P3, after P4, before P4, after P5, before P5, after 8000Mean fluorescence intensity (counts))

[3] = biological target: T1, Erbin PDZ (MBP-PDZ immobilized on gold nanorods via DNA) (Homo sapiens, UniProt Q96RT1); assay: single-molecule plasmon-enhanced fluorescence binding kinetics of PDZ-peptide interaction
T1 construct: Since neither the utilized PDZ domain nor MBP contains natural cysteines; single introduced cysteine in the linker between MBP and PDZ (handle for DNA coupling); host or cells: E. coli BL21(DE3)

[4] = unspecific binding of labeled peptide to DNA-coated gold nanoparticles without protein (negative control); settings: DNA decorated, 0 proteins per particle; 60 ms exposure, 1 nM labeled peptide in PBS
Excerpt: 2 Characterization of the PDZ-peptide binding interactions. (A) Typical microcopy FOV of the immobilized gold nanoparticles. Each FOV (∼ 43 μm by 43 μm) typically contains around 100 stochastically immobilized particles, yielding average interparticle distances of several micrometers. A time trace of one of the gold nanoparticles is shown, on which the peptide–protein binding events can be seen as fluorescence bursts. An expanded region of the time trace showcases a few examples of individual bright-times and dark-times. (B) Typical signals obtained from peptide binding on a gold nanorod (blue) and on the glass (red). (C) Plot depicting the distribution of bright times (bound-state lifetimes) of the protein-peptide interactions, based on all recorded particles. […]
In order to quantify association kinetics and related particle-to-particle differences, analysis is based on the average dark time (t d ) in between events (unbound-state lifetime). […] The binding event frequency’s dependency on the number of proteins per particle was assessed through several measurements, using particle preparations with different average numbers of proteins per particle (Figure .D). […] Dim fluorescence signals that would have been lost in unenhanced studies can now readily be detected, giving rise to more accurate event detection, and thus, a more representative k on value.

[5] = tested on: PDZ directly conjugated to gold nanorods; assay: peptide binding to PDZ conjugated directly to gold nanorods via a cysteine linker; settings: direct conjugation to gold nanorods via cysteine linker, no DNA
Excerpt: In this study we utilize single-crystalline GNPs (nanorods) to probe protein–protein interactions at the single-molecule level. To facilitate single-molecule studies the particles are immobilized onto a glass coverslip to enable the imaging of single nanoparticles. Before immobilization, we conjugated protein (PDZ) to the nanoparticles using a solution-phase protocol. We initially tried direct conjugation of PDZ to the gold nanorods via a cysteine linker. […] We then developed a DNA-mediated conjugation approach. This approach, through the rigid nature of double-stranded DNA, allows for control over the time-average distance between the proteins and the GNPs. This controlled distance is crucial, as it prevents a direct interaction between the protein and the gold, thereby preventing denaturation. Moreover, it still allows the proteins to be placed close to the gold nanorods, which facilitates potent fluorescence enhancement of the fluorescently labeled binding partners (Supplementary Figure 1).

[6] = tested on: PDZ; settings: reference number not printed at place (probably ref 20), cited from earlier work
Excerpt: From a double-exponential fit we extracted characteristic bound-state lifetimes of 16 ± 1 and 83 ± 16 ms, corresponding to k off values of 61 ± 5 and 12 ± 3 s^–1. The slow dissociation rate constant is similar to previously reported values for the same interaction with immobilized peptides (k off ≈ 6.3 s^–1). […] The underlying molecular mechanism leadi ... || In order to quantify association kinetics and related particle-to-particle differences, analysis is based on the average dark time (t d ) in between events (unbound-state lifetime). Together with the number of proteins per particle (n), and the concentration of the labeled peptide solution (c i ), it follows that kon=1/tdcin . The binding event frequency’s dependency on the number of proteins per particle was assessed through several measurements, using particle preparations with different average numbers of proteins per particle (Figure .D). Herein, a control sample (DNA decorated, 0 proteins ...

T1 sequence (Q96RT1 1321-1410 limits assumed): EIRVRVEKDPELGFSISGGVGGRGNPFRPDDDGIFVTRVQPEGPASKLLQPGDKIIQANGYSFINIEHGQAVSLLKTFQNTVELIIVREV

Compound | average PDZ-peptide binding event frequency at 0.2 M urea ([1]; 0.2 M urea, 2 nM labeled peptide in PBS, within Poisson distribution) | time for refolding of PDZ after urea removal ([1]; after 6.4 M urea, time required for fluid exchange and initiation of imaging) [min] | k off values at different urea concentrations ([1]; based on dominant short lifetimes of double exponential fits, 2 nM labeled peptide in PBS, 40 ms exposure) | bound-state lifetimes for increasing urea concentrations ([1]; bright time distributions, 2 nM labeled peptide in PBS, 40 ms exposure) | PDZ-peptide binding frequency after removal of urea (refolding) ([1]; pre-incubation with 6.4 M urea for 20 minutes, then washed, 2 nM labeled peptide in PBS) | occurrence of PDZ-peptide interactions at 4.0 M urea ([1]; time traces of a particle before and after 4.0 M urea, 2 nM labeled peptide in PBS) | fluorescence intensity of ATTO 532-PDZ decorated particles after urea exposure [2] | distribution of bound-state lifetimes ([3]; all particles (Figure 2C), also on single particles (Supplementary Figure 6)) | characteristic bound-state lifetime, short component ([3]; double-exponential fit of bright times, all recorded particles, 20 ms exposure, 50 mW 637 nm laser, TIRF, 1 nM labeled peptide in PBS) [ms] | characteristic bound-state lifetime, long component ([3]; double-exponential fit of bright times, all recorded particles, 20 ms exposure, 50 mW 637 nm laser, TIRF, 1 nM labeled peptide in PBS, less frequent events) [ms] | k on ([3]; linear fit of event frequency vs average number of proteins per particle, kon=1/tdcin, 60 ms exposure, 50 mW, 1 nM labeled peptide in PBS) | slope of binding event frequency vs number of proteins per particle ([3]; linear fit, intercept 0, 60 ms exposure, 1 nM labeled peptide in PBS) [mHz/protein] | event frequency on control particles (unspecific binding) [4] [mHz] | peptide binding of directly conjugated PDZ [5] | k on (previously reported) ([6]; PAINT experiments) | k off (previously reported) ([6]; same interaction with immobilized peptides, integration time 60 ms)
NC(N)=O [urea] | slight increase | ≤ 1 | no significant deviations | did not significantly change | recovered toward initial levels | terminates the occurrence of PDZ-peptide interactions | no reduced fluorescence intensities | – | – | – | – | – | – | – | – | –
H-[C(ATTO655)]GAGRGSIDTWV-OH [ATTO 655-labeled peptide, Atto-655 labeled peptide purchased from SB Peptide] | – | – | – | – | – | – | – | double exponential | 16 ± 1 | 83 ± 16 | (1.2 ± 0.1) × 10^7 M^–1 s^–1 | 12 | 2 | no peptide binding | ≈ 3.6 × 10^5 M^–1 s^–1 | ≈ 6.3 s^–1
